Results taken from patent publication US20210322327A1, “EXTRACELLULAR VESICLES COMPRISING STING-AGONIST” (Codiak BioSciences, Inc., priority 2018, published 2021).

Assays:
Type in all cases: in vivo, C57BL/6 mice
[1] = test system: B16F10 murine melanoma cells; assay: Advanced B16F10 melanoma tumor growth; conditions: days 10, 13, 16
Procedure: Treatment was started when tumor volume reached ˜ 50 mm3. To test the activity in advanced tumor, C57BL/6 mice were inoculated subcutaneously with 1×10^6 B16F10 murine melanoma cells (n=5 mice per group) and waited until tumor volume reached ˜100 mm^3. Ten, thirteen, and sixteen days post-inoculation, the mice were injected intratumorally with exosomes, 30 μg of free 3-3 cAIMPdFSH, 0.3 μg of free 3-3 cAIMPdFSH, 0.1 μg of 3-3 cAIMPdFSH loaded in PTGFRN-overexpressing exosomes, or 0.3 μg of 3-3 cAIMPdFSH loaded in PTGFRN-overexpressing exosomes. Tumor volumes were measured daily until day 28, and animals were sacrificed when tumor volume reached 2000 mm^3.

B16F10 cells = assay: B16F10 re-challenge on the opposite flank; conditions: 20 μg group, re-challenged day 21, read day 39
Description: STING pathway activation leads to memory T-cell recruitment and ultimately a durable adaptive immune response. To determine whether the anti-tumor effects in this study led to an immune response, the five animals in the high dose STING agonist and Exo STING groups were re-challenged on day 21 by transplantation of 5×10^5 B16F10 cells on the opposite flank. Five additional naïve mice were inoculated with the same tumor cell preparation and treated daily with PBS to ensure cell viability and growth kinetics. By day 39 (18 days post-challenge) all mice in the PBS group were sacrificed.

OVA-reactive splenocytes = assay: IFNγ ELISpot of splenocytes with OVA peptide SIINFEKL
Procedure: As an orthogonal method to measure antigen-specific immunity, IFNγ-expression was measured by ELISpot according to standard protocols (ImmunoSpot®; Cellular Technology Limited). Splenocytes were homogenized to a single-cell suspension and plated (200,000 cells/well) in a plate coated with an anti-IFNγ antibody. The OVA peptide SIINFEKL was added to the cells for 18 hours to induce IFNγ production, cells were washed from the plate, and plate-bound IFNγ was detected using an orthogonal antibody (FIG. 41D). The total number of reactive spots per plate were counted and compared across groups using ImmunoSpot® software (Cellular Technology Limited).

Compound	tumor growth compared to exosomes control ([1]; 0.3 μg free, start ~100 mm^3)	tumor burden compared to exosomes control ([1]; 30 μg free)	animals in which re-challenge tumors failed to grow (B16F10 cells)	OVA-reactivity (IFNγ spots) (OVA-reactive splenocytes; 0.2 μg IP)	OVA-reactivity (IFNγ spots) (OVA-reactive splenocytes; 20 μg IP)
Nc1ncnc2c1ncn2[C@@H]1O[C@@H]2COP(=O)(S)O[C@H]3[C@@H](F)[C@H](n4cnc5c(=O)[nH]cnc54)O[C@@H]3COP(O)(=S)O[C@H]2[C@H]1F (some centres unmarked) [3-3 cAIMPdFSH, 3′3′-cAIMPdFSH]	tumor growth was not affected	great reduction of tumor burden			
Nc1ncnc2c1ncn2[C@@H]1O[C@@H]2COP(O)(=S)O[C@@H]3C(O)[C@@H](COP(O)(=S)O[C@H]2[C@H]1O)O[C@H]3n1cnc2c(N)ncnc21 (some centres unmarked) [ML RR-S2 CDA]			four out of 5	very low levels of OVA-reactivity	highly reactive
